Results taken from patent US20070197488A1, “Prodrugs of ERbeta-selective substances, process for their production, and pharmaceutical compositions that contain these compounds” (priority 2005, published 2007).

Tests used:
[1] = target: Human Carbonic Anhydrase I (Homo sapiens, UniProt P00915); assay: Carbonic anhydrase inhibition (CO2 hydration, time to pH drop); type: biochemical; settings: read-out: CAI IC50
Experimental: (§1) b) Carbonic Anhydrase Inhibition—Test Principle and Test Description:
(§2) Carbonic anhydrases catalyze the CO2 hydration.
(§3) Test preparation: A constant CO2 stream is directed through a buffer that was mixed with carbonic anhydrase I or carbonic anhydrase II. The measuring parameter is the time that is required to drop the pH within defined limits. This parameter reflects the formation of H2CO3 in the medium. IC50-Inhibiting values are determined by test substances being pipetted into the test preparation.

[2] = target: Human Carbonic Anhydrase II (Homo sapiens, UniProt P00918); assay: as above; type: biochemical; settings: read-out: CAII IC50
Experimental: as §1, §2, §3

[3] = Plasma level of released mother estrogen after oral administration in ovariectomized rats; type: in vivo, Wistar rats; settings: 1x oral 1 mg/animal, compared with oral 8-vinyl-E2
Experimental: Adult Wistar rats were ovariectomized 14 days after this operation for the study of the substances according to the invention. A treatment extended over 3 days (days 1-3), and on day 4, the animals were sacrificed. Then, the recovery of plasma for hormone-analytical and clinical-chemical determinations and the determination of uterus weights were carried out. In satellite tests, correspondingly conditioned animals were sacrificed and samples were taken of their blood after one-time treatment and at other times (see FIGS. 1 and 2).

Human Carbonic Anhydrase I, sequence (P00915 whole entry): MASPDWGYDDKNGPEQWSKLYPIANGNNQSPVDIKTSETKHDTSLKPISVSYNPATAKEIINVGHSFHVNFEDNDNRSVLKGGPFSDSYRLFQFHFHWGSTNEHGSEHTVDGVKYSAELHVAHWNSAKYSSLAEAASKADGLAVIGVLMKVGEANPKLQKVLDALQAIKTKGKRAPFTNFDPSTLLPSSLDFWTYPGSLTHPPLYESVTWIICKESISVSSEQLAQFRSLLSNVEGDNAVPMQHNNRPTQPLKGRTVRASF

Row | Compound | IC50 [1] | IC50 [2] | Increase of the 8β-vinylestra-1,3,5(10)-triene-3,17β-diol level (8-vinyl-E2) in the plasma [3]
1 | C=C[C@@]12CCc3cc(O)ccc3[C@H]1CC[C@]1(C)[C@@H](OC(=O)c3ccccc3)CC[C@H]12 [(3′-Hydroxy-8′beta-vinyl-estra-1′,3′,5′(10′)-trien-17′beta-yl)-benzoat] | > 10000 nM | > 10000 nM | –
2 | C[C@]12CC[C@@H]3c4ccc(OS(N)(=O)=O)cc4CC[C@H]3[C@@H]1CC[C@@H]2O [Estradiol-3-sulfamate] | 157 ± 10.6 nM | 21.6 ± 1.5 nM | –
3 | C=C[C@@]12CCc3cc(O)ccc3[C@H]1CC[C@]1(C)[C@@H](OC(=O)c3cccc(S(N)(=O)=O)c3)CC[C@H]12 [Example 1, (3′-Hydroxy-8′-vinylestra-1′,3′,5′(10′)-trien-17′β-yl)-3-sulfamoyl benzoate] | 3900 nM | 570 nM | Considerably greater increase
4 | C=C[C@@]12CCc3cc(O)ccc3[C@H]1CC[C@]1(C)[C@@H](OC(=O)c3ccc(S(N)(=O)=O)cc3)CC[C@H]12 [Example 2, (3′-Hydroxy-8′-vinylestra-1′,3′,5′(10′)-trien-17′β-yl)-4-sulfamoyl benzoate] | – | – | greater increase
